We go through three compounds from ChEMBL document CHEMBL3046037, “Genetic analysis and molecular characterisation of laboratory and field mutants of Botryotinia fuckeliana (Botrytis cinerea) resistant to QoI fungicides” (Pest Manag Sci, 2012).

Experiment [1] has as its system Botrytis cinerea. The experiment can be described thus: Antifungal activity against Botryotinia fuckeliana SAS405 assessed as inhibition of colony growth. The experiment is classed as functional, organism-based.
Experiment [2] deals with Botrytis cinerea. As to the kind of experiment: Antifungal activity against Botryotinia fuckeliana SAS56 assessed as complete inhibition of colony growth at 3 mg/ml. The experiment is classed as functional, organism-based.
The subject of experiment [3] is Botrytis cinerea. The experiment can be described thus: Antifungal activity against Botryotinia fuckeliana SAS56 assessed as inhibition of colony growth. The experiment is classed as functional, organism-based.
For experiment [4], the system named is Botrytis cinerea. As to the kind of experiment: Antifungal activity against QoI fungicide-resistant Botryotinia fuckeliana lab isolates assessed as inhibition of colony growth. The experiment is classed as functional, organism-based.
Experiment [5] concerns Botrytis cinerea. As to the kind of experiment: Resistance index, ratio of EC50 for QoI fungicide-resistant Botryotinia fuckeliana lab isolates to EC50 for Botryotinia fuckeliana SAS405. The experiment is classed as functional.
In experiment [6] the test system is Botrytis cinerea. As to the kind of experiment: Resistance index, ratio of EC50 for QoI fungicide-resistant Botryotinia fuckeliana lab isolates to EC50 for Botryotinia fuckeliana SAS56. The experiment is classed as functional.
Experiment [7] has as its system Botrytis cinerea. The experiment can be described thus: Antifungal activity against QoI fungicide-resistant Botryotinia fuckeliana field isolates expressing cytb G143A mutant gene assessed as inhibition of colony growth. The experiment is classed as functional, organism-based.
The test system of experiment [8] is Botrytis cinerea. The experiment can be described thus: Resistance index, ratio of EC50 for QoI fungicide-resistant Botryotinia fuckeliana field isolates expressing cytb G143A mutant gene to EC50 for Botryotinia fuckeliana SAS405. The experiment is classed as functional.
In experiment [9] the test system is Botrytis cinerea. As to the kind of experiment: Antifungal activity against Botryotinia fuckeliana SAS56 assessed as complete inhibition of colony growth at […]. The experiment is classed as functional, organism-based.
In experiment [10] the test system is Botrytis cinerea. The experiment can be described thus: Resistance index, ratio of EC50 for QoI fungicide-resistant Botryotinia fuckeliana field isolates expressing cytb G143A mutant gene to EC50 for Botryotinia fuckeliana SAS56. The experiment is classed as functional.

Values after ≈ are worked out from the molar mass of the structure shown. Active and inactive are the calls of the source. The calls are words filed in the database; no cut-off is given here.

Consider `CO/N=C(/C(=O)OC)c1ccccc1COc1ccccc1C` [KRESOXIM-METHYL], for which the EC50 in the experiment with Botrytis cinerea [1] and in the experiment on Botrytis cinerea [3] was 0.01 µg/mL (≈ 0.0319 µM) in each case. Also, the “growth inhibition (GI)” value in the experiment with Botrytis cinerea [2] is “Active”.

As for `CO/C=C(/C(=O)OC)c1ccccc1Oc1cc(Oc2ccccc2C#N)ncn1` [AZOXYSTROBIN], the concentration for a half-maximal effect (EC50) in the experiment with Botrytis cinerea [1] and in the experiment on Botrytis cinerea [3] was 0.1 µg/mL (≈ 0.248 µM) each time. Moreover, the “growth inhibition (GI)” value with Botrytis cinerea [2] was “Active”.

Take `CO/N=C(\C(=O)OC)c1ccccc1CO/N=C(\C)c1cccc(C(F)(F)F)c1`: the EC50 with Botrytis cinerea [4] was more than 100 µg/mL; in the experiment on Botrytis cinerea [1], 0.01 µg/mL (≈ 0.0245 µM); in the experiment on Botrytis cinerea [7] it was more than 100 µg/mL; in the experiment with Botrytis cinerea [3], less than 0.01 µg/mL. Besides, the “Ratio EC50” value in the experiment on Botrytis cinerea [5], in the experiment on Botrytis cinerea [6], in the experiment on Botrytis cinerea [8] and in the experiment on Botrytis cinerea [10] was more than 1000 each time. In addition, the MIC with Botrytis cinerea [1] and in the experiment on Botrytis cinerea [3] was 1 µg/mL (≈ 2.45 µM) throughout. Also, in the experiment with Botrytis cinerea [9], the “growth inhibition (GI)” value was “Active”.

A word on the EC50: it is the concentration at which the effect is half-maximal. What is called MIC is the lowest concentration found to suppress growth.
